Assay [1] concerns the target T1, androgen receptor (AR-LBD) (Rattus norvegicus, UniProt P15207).
T1 construct: 5 μL of 2×AR-LBD/Fluoromone AL Red Complex contained in the kit; purchased Invitrogen
T1 sequence (P15207 651-882 limits assumed): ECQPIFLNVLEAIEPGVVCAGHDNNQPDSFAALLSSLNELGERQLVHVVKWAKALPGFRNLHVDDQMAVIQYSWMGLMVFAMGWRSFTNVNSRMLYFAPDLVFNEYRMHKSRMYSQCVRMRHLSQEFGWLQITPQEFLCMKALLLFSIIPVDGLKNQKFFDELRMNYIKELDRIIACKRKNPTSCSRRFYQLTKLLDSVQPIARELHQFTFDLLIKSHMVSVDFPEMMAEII
The experiment in a line: Evaluation of androgen receptor affinity (PolarScreen Androgen Receptor Competitor Assay Kit, Red; fluorescence polarization). The following applies: 22° C. for 5 hours, relative to binding rate of 1 μM DHT, read-out: AR affinity (pEC50) (converted). The procedure, abridged: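 FP competition: compound + AR-LBD/Fluoromone AL Red tracer complex, 22° C, 5 h. Reference 1 μM DHT binding rate; pEC50 by 4-parameter fit.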
(In general: Fluorescence polarisation rises when a labelled molecule tumbles more slowly, as on binding a larger partner.)

Assay [2] has as its target T2, human androgen receptor (Homo sapiens, UniProt P10275).
T2 construct: expressed in transfected cells; host or cells: HEK293
T2 sequence (P10275 1-920): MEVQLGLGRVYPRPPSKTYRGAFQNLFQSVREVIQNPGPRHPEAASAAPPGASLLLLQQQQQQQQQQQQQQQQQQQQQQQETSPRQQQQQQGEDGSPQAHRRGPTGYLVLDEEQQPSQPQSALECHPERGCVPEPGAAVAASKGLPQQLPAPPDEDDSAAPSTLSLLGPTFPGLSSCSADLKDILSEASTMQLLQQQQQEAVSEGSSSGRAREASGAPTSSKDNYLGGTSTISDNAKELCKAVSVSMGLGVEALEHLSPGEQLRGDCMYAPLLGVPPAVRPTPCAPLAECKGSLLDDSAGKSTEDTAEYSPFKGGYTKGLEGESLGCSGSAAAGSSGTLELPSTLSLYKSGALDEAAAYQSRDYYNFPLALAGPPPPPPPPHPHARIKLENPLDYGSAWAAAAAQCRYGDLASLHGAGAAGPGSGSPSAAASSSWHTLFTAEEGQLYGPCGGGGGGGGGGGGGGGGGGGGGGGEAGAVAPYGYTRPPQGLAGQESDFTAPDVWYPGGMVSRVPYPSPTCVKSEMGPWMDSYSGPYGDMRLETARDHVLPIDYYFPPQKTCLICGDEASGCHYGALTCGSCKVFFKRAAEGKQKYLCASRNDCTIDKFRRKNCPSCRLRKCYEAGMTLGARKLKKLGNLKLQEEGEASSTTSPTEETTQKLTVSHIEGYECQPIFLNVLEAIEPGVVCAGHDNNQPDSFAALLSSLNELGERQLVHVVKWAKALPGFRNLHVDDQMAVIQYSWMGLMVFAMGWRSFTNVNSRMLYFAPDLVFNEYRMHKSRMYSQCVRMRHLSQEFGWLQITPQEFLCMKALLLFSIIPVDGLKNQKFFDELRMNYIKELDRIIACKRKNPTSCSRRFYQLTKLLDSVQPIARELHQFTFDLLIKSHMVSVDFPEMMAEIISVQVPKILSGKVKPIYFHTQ
Kind of assay: Reporter assay of an androgen receptor responsive sequence (luciferase, transiently transfected HEK293 cells). Type of assay: cell-based. The following applies: 24 hours incubation, relative to activity of 100 nM DHT, read-out: AR transcriptive activity (pEC50) (converted). Put shortly:
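Agonism scored as pEC50, fitted by 4-parameter curve against the response to 100 nM DHT, from dual-luciferase readout after 24 h compound treatment. Cells were HEK293 co-transfected (3 h) with human AR expression vector, androgen-responsive firefly reporter and Renilla control, in charcoal-stripped serum.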
A general note: Reporter assays use an easily measured gene product as a stand-in for the process of interest.

Each structure is given as a SMILES string.

In the case of `Cc1sc(N(Cc2ccccc2SC(F)F)c2ccc(C#N)cc2)nc1C(=O)NS(C)(=O)=O` [Compound 79, 2-[4-cyano-N-[[2-(difluoromethylsulfanyl)phenyl]methyl]anilino]-5-methyl-N-methylsulfonyl-thiazole-4-carboxamide], the EC50 is 15.8 nM in assay [1] and 50.1 nM in assay [2].
On the same counts, the results for `Cc1sc(N(CCc2ccccc2F)c2ccc(C#N)cc2)nc1C(=O)NS(C)(=O)=O` [Compound 80, 2-[4-cyano-N-[2-(2-fluorophenyl)ethyl]anilino]-5-methyl-N-methylsulfonyl-thiazole-4-carboxamide] are 316 nM and over 10000 nM.
With `Cc1sc(N(CCc2ccc(F)cc2)c2ccc(C#N)cc2)nc1C(=O)NS(C)(=O)=O` [Compound 81, 2-[4-cyano-N-[2-(4-fluorophenyl)ethyl]anilino]-5-methyl-N-methylsulfonyl-thiazole-4-carboxamide], the EC50 is 158 nM in assay [1] and 1580 nM in assay [2].
On the same counts, the results for `Cc1sc(N(Cc2cccc(Oc3ccccc3)c2)c2ccc(C#N)cc2)nc1C(=O)NS(C)(=O)=O` [Compound 82, 2-[4-cyano-N-[(3-phenoxyphenyl)methyl]anilino]-5-methyl-N-methylsulfonyl-thiazole-4-carboxamide] are 79.4 nM and over 10000 nM.
The like results for `Cc1sc(N(CCc2cccc(F)c2)c2ccc(C#N)cc2)nc1C(=O)NS(C)(=O)=O` [Compound 83, 2-[4-cyano-N-[2-(3-fluorophenyl)ethyl]anilino]-5-methyl-N-methylsulfonyl-thiazole-4-carboxamide] were, in that order, 126 nM and 2510 nM.
As for `Cc1sc(N(Cc2ccsc2)c2ccc(C#N)cc2)nc1C(=O)NS(C)(=O)=O` [Compound 85, 2-[4-cyano-N-(3-thienylmethyl)anilino]-5-methyl-N-methylsulfonyl-thiazole-4-carboxamide], the EC50 in assay [1] was 200 nM; in assay [2], 316 nM.
In the case of `Cc1sc(N(Cc2ccoc2)c2ccc(C#N)cc2)nc1C(=O)NS(C)(=O)=O` [Compound 86, 2-[4-cyano-N-(3-furylmethyl)anilino]-5-methyl-N-methylsulfonyl-thiazole-4-carboxamide], the EC50 in assay [1] was 251 nM; in assay [2] it was 1580 nM.
As to `Cc1sc(N(Cc2ccco2)c2ccc(C#N)cc2)nc1C(=O)NS(C)(=O)=O` [Compound 87, 2-[4-cyano-N-(2-furylmethyl)anilino]-5-methyl-N-methylsulfonyl-thiazole-4-carboxamide], the values for the EC50 in assay [1] and in assay [2] were 158 nM and 1000 nM, respectively.
On the same counts, the results for `Cc1sc(N(CCc2ccc3ccccc3c2)c2ccc(C#N)cc2)nc1C(=O)NS(C)(=O)=O` [Compound 88, 2-[4-cyano-N-[2-(2-naphthyl)ethyl]anilino]-5-methyl-N-methylsulfonyl-thiazole-4-carboxamide] are 316 nM and over 10000 nM.
The like results for `CCC(C)CN(c1ccc(C#N)cc1)c1nc(C(=O)NS(C)(=O)=O)c(C)s1` (centres unmarked) [Compound 89, 2-[4-cyano-N-(2-methylbutyl)anilino]-5-methyl-N-methylsulfonyl-thiazole-4-carboxamide] were, in that order, 501 nM and over 10000 nM.
On the same counts, the results for `Cc1sc(N(CCC(C)(C)C)c2ccc(C#N)cc2)nc1C(=O)NS(C)(=O)=O` [Compound 90, 2-[4-cyano-N-(3,3-dimethylbutyl)anilino]-5-methyl-N-methylsulfonyl-thiazole-4-carboxamide] are 398 nM and over 10000 nM.
As for `Cc1sc(N(Cc2ccccc2)c2ccc(OC(F)F)cc2)nc1C(=O)NS(C)(=O)=O` [Compound 91, 2-[N-benzyl-4-(difluoromethoxy)anilino]-5-methyl-N-methylsulfonyl-thiazole-4-carboxamide], the EC50 in assay [1] was 100 nM; in assay [2] it was 1580 nM.
The like results for `Cc1sc(N(Cc2ccc(C(F)F)cc2)c2ccc(C#N)cc2)nc1C(=O)NS(C)(=O)=O` [Compound 94, 2-[4-cyano-N-[[4-(difluoromethyl)phenyl]methyl]anilino]-5-methyl-N-methylsulfonyl-thiazole-4-carboxamide] were, in that order, 39.8 nM and 25.1 nM.
On the same counts, the results for `Cc1sc(N(Cc2cc(F)cc(F)c2)c2ccc(C#N)cc2)nc1C(=O)NS(C)(=O)=O` [Compound 96, 2-[4-cyano-N-[(3,5-difluorophenyl)methyl]anilino]-5-methyl-N-methylsulfonyl-thiazole-4-carboxamide] are 79.4 nM and 100 nM.
Consider `Cc1sc(N(Cc2ccc(F)c(F)c2)c2ccc(C#N)cc2)nc1C(=O)NS(C)(=O)=O` [Compound 97, 2-[4-cyano-N-[(3,4-difluorophenyl)methyl]anilino]-5-methyl-N-methylsulfonyl-thiazole-4-carboxamide], for which the EC50 in assay [1] was 50.1 nM; in assay [2], 31.6 nM.
In the case of `Cc1sc(N(Cc2cc(F)cc(Cl)c2)c2ccc(C#N)cc2)nc1C(=O)NS(C)(=O)=O` [Compound 99, 2-[N-[(3-chloro-5-fluoro-phenyl)methyl]-4-cyano-anilino]-5-methyl-N-methylsulfonyl-thiazole-4-carboxamide], the EC50 in assay [1] was 63.1 nM; in assay [2], 126 nM.
Consider `Cc1sc(N(Cc2ccc(Cl)c(Cl)c2)c2ccc(C#N)cc2)nc1C(=O)NS(C)(=O)=O` [Compound 100, 2-[4-cyano-N-[(3,4-dichlorophenyl)methyl]anilino]-5-methyl-N-methylsulfonyl-thiazole-4-carboxamide], for which the EC50 in assay [1] was 31.6 nM; in assay [2] it was 15.8 nM.
Consider `Cc1sc(N(Cc2cccc(F)c2F)c2ccc(C#N)cc2)nc1C(=O)NS(C)(=O)=O` [Compound 102, 2-[4-cyano-N-[(2,3-difluorophenyl)methyl]anilino]-5-methyl-N-methylsulfonyl-thiazole-4-carboxamide], for which the figures for the EC50 in assay [1] and in assay [2] were 79.4 nM and 50.1 nM, respectively.
The like results for `Cc1sc(N(Cc2cc(F)ccc2F)c2ccc(C#N)cc2)nc1C(=O)NS(C)(=O)=O` [Compound 103, 2-[4-cyano-N-[(2,5-difluorophenyl)methyl]anilino]-5-methyl-N-methylsulfonyl-thiazole-4-carboxamide] were, in that order, 158 nM and 316 nM.
`Cc1sc(N(Cc2ccc(F)cc2F)c2ccc(C#N)cc2)nc1C(=O)NS(C)(=O)=O` [Compound 104, 2-[4-cyano-N-[(2,4-difluorophenyl)methyl]anilino]-5-methyl-N-methylsulfonyl-thiazole-4-carboxamide]: the values for the EC50 in assay [1] and in assay [2] were 50.1 nM and 126 nM, respectively.
On the same counts, the results for `COc1ccc(F)cc1CN(c1ccc(C#N)cc1)c1nc(C(=O)NS(C)(=O)=O)c(C)s1` [Compound 105, 2-[4-cyano-N-[(5-fluoro-2-methoxy-phenyl)methyl]anilino]-5-methyl-N-methylsulfonyl-thiazole-4-carboxamide] are 126 nM and 316 nM.
On the same counts, the results for `Cc1sc(N(Cc2ccc(F)cc2Cl)c2ccc(C#N)cc2)nc1C(=O)NS(C)(=O)=O` [Compound 106, 2-[N-[(2-chloro-4-fluoro-phenyl)methyl]-4-cyano-anilino]-5-methyl-N-methylsulfonyl-thiazole-4-carboxamide] are 79.4 nM and 316 nM.

The values above are taken from patent US10689354B2, “Aminoazole derivative” (Teijin Pharma Limited, priority 2015, dated 2020).
